Assays:
[1] = test system: HCC; conditions: monotherapy of HCC; cited from earlier work
[2] = test system: HuH7 xenografts; test: HSV1716 in combination with sorafenib in vivo in subcutaneous flank HuH7 xenografts; set-up: species or system nude mice
Description: Female 6-8 week old athymic nude mice (Charles River Labs, UK) were maintained under specific pathogen free conditions. Actively growing HuH7 cells were harvested and, after re-suspension in PBS, 1×10^6 cells per mouse were injected subcutaneously. Treatments were started when tumours reached 5 mm in diameter. Mice were inspected daily, when tumour diameters reached 15 mm they were sacrificed and the tumour xenograft removed for viral extraction. The viral load in tumours and various organs was assessed by plaque forming assay on Vero cells. Extracted intact tumours/organs were frozen immediately at −70° C. and, after thawing, the tissues were mechanically homogenized in a Retsch homogenizer in 1 ml PBS prior to titration.
Sorafenib for IP injections was obtained from Selleckchem UK, (S1040), and was reported as 100% pure. The dose was 10 mg/kg equivalent to 10 μg/g or 250 μg/mouse (25 g). The 0.1 ml intraperitoneal dose therefore required 250 μg/0.1 ml or 2.5 mg/ml. 50 mg sorafenib was dissolved in 0.5 ml DMSO and this was added to 19.5 ml PBS with 5% Tween80 and 5% PEG400 (both v/v). This is equivalent to c4 mM sorafenib. HSV1716gCluc which expresses luciferase from the HSV-1 gC promoter. The stock virus solution was 8×10^7 pfu/ml and 0.125 ml virus stock were added to 10 ml compound sodium lactate with 10% glycerol to give the injection solution at a titre of 1×10^6 pfu/ml. 0.1 ml injected it/mouse and is equivalent to 1×10^5 pfu.
In vivo combination with sorafenib and HSV1716 was analysed using the HuH7 subcutaneous xenograft HCC model in nude mice. Groups were—no treatment (n=10), sorafenib (n=6), HSV1716 (n=10), HSV1716 sorafenib (n=12). HSV1716gC-luc at 1×10^5 pfu was given on days 1, 3 and 9 and sorafenib at 10 mg/kg (Liu et al Cancer Res 2006; 66:11851-11858), was administered IP (Wang et al., Cancer Biol & Therapy 2011; 12:3, 229-238) every 2nd day from day 2 on 9 occasions. Virus was monitored by IVIS and tumour growth (FIG. 37) and survival (FIG. 38) were recorded.

Question: With CNC(=O)c1cc(Oc2ccc(NC(=O)Nc3ccc(Cl)c(C(F)(F)F)c3)cc2)ccn1 [sorafenib, 4-[4-[[4-chloro-3-(trifluoromethyl)phenyl]carbamoylamino]phenoxy]-N-methyl-pyridine-2-carboxamide] as the molecule, how does the “prolongation of median survival and the time to progression” value [1] read?
Answer: ~3 months

Question: What about the “reduction of the risk of death during year 1” value [1] of the same molecule?
Answer: 31%

Question: And the xenograft growth ([2]; HuH7 xenografts (FIG. 37))?
Answer: inhibited

Question: And the mouse survival ([2]; HuH7 xenografts (FIG. 38))?
Answer: survived longer than controls

Question: What about the “period in which no mice died” value ([2]; HuH7 xenografts (FIG. 38), virus 1×10^5 pfu days 1, 3, 9, sorafenib 10 mg/kg IP) of the same molecule?
Answer: about 4 days

Reference: patent publication US20150125425A1, “TREATMENT OF LIVER CANCER” (priority 2012, published 2015)
